Experimental findings from patent USRE49361E1, “Fused bicyclic (hetero)aromatic compounds useful for the treatment of cancers” (JAZZ PHARMACEUTICALS IRELAND LIMITED, priority 2014, dated 2023) are described below.

In this assay the test system is C-RAF-mediated ERK activation in B-RAF^WT IPC-298 cells (NRAS^Q61L). Briefly: IPC-298 AlphaScreen SureFire pERK1/2 cellular assay. In kind it is cell-based, human. As to conditions: 1 hour treatment, in comparison to Dabrafenib.
Experimental: On day 2, compounds at a concentration of 6 mM are serially diluted 5 μl into 45 μl of 100% dimethyl sulfoxide (DMSO) six times in 96-well plates for a total of 7 dilution points. […] The cells are treated for 1 hour at 37° C. in 5% CO2. The treatment is then removed and the cells are incubated with lysis buffer containing phosphatase inhibitors for 10 minutes at room temperature with gentle shaking. […] The biotinylated antibody binds to the streptavidin-coated donor beads and the phopsho-ERK1/2 antibody binds to the acceptor beads. Plates are read on an EnVision reader (Perkin Elmer) and excitation of the beads at 680 nm with a laser induces the release of singlet oxygen molecules from the donor beads that triggers energy transfer to the acceptor beads in close proximity, producing a signal that can be measured at 570 nm. Both antibodies bind to phosphorylated ERK proteins, bringing the donor and acceptor beads into close proximity.
All data are analysed using the GraphPad Prism software package. Activation of ERK phosphorylation is expressed as a percentage of activation relative to the reference compound, Dabrafenib.
As to `O=C1CCc2c(Oc3ccc4c(c3)CC(c3nc(-c5ccncc5)c[nH]3)CO4)ccnc2N1` (stereo not drawn) [Example 4, 5-[3-[4-(4-pyridyl)-1H-imidazol-2-yl]chroman-6-yl]oxy-3,4-dihydro-1H-1,8-naphthyridin-2-one], the “paradoxical activation of MAPK pathway (ERK phosphorylation) relative to Dabrafenib” value was “reduced paradoxical activity”.
Regarding `O=C1CCc2c(Oc3ccc4c(c3)CC(c3nc(-c5ccsc5)c[nH]3)CO4)ccnc2N1` (stereo not drawn) [Example 6, 5-[3-[4-(3-thienyl)-1H-imidazol-2-yl]chroman-6-yl]oxy-3,4-dihydro-1H-1,8-naphthyridin-2-one], the “paradoxical activation of MAPK pathway (ERK phosphorylation) relative to Dabrafenib” value is listed as “reduced paradoxical activity”.
As to `O=C1CCc2c(Oc3ccc4c(c3)CC(c3nc(-c5cccs5)c[nH]3)CO4)ccnc2N1` (stereo not drawn) [Example 7, 5-[3-[4-(2-thienyl)-1H-imidazol-2-yl]chroman-6-yl]oxy-3,4-dihydro-1H-1,8-naphthyridin-2-one], the “paradoxical activation of MAPK pathway (ERK phosphorylation) relative to Dabrafenib” value is “reduced paradoxical activity”.
Next, `O=C1CCc2c(Oc3ccc4c(c3)CC(c3cc(-c5ccccc5)[nH]n3)CO4)ccnc2N1` (stereo not drawn) [Example 18, 5-[3-(5-phenyl-1H-pyrazol-3-yl)chroman-6-yl]oxy-3,4-dihydro-1H-1,8-naphthyridin-2-one]: “reduced paradoxical activity”.
With `O=C1CCc2c(Oc3ccc4c(c3)O[C@@H](c3nc(-c5ccccc5)c[nH]3)CO4)ccnc2N1` [Example 19, 5-[[(3S)-3-(4-phenyl-1H-imidazol-2-yl)-2,3-dihydro-1,4-benzodioxin-6-yl]oxy]-3,4-dihydro-1H-1,8-naphthyridin-2-one], the “paradoxical activation of MAPK pathway (ERK phosphorylation) relative to Dabrafenib” value was “reduced paradoxical activity”.
For the molecule `O=C1CCc2c(Oc3ccc4c(c3)O[C@H](c3nc(-c5ccccc5)c[nH]3)CO4)ccnc2N1` [Example 20, 5-[[(3R)-3-(4-phenyl-1H-imidazol-2-yl)-2,3-dihydro-1,4-benzodioxin-6-yl]oxy]-3,4-dihydro-1H-1,8-naphthyridin-2-one], the “paradoxical activation of MAPK pathway (ERK phosphorylation) relative to Dabrafenib” value was “reduced paradoxical activity”.
